From PMC6220877, “Modified Peptide Inhibitors of the Keap1–Nrf2 Protein–Protein Interaction Incorporating Unnatural Amino Acids” (Chembiochem, 2018)
“And” between values parts separate entries of the source, which are not always exact repeats. Equal entries are not always repeated. Marks after values point to notes of the source that are not given here. Where a SMILES comes first, the peptide text is derived from it. [ ]: non-standard residue; d: D form. The star is where a group is joined. 2Thi = N[C@@H](Cc1cccs1)C(=O)O; Cha = N[C@@H](CC1CCCCC1)C(=O)O; X1 = CC(C)C[C@H](N*)c1nnn[nH]1; Tle = CC(C)(C)[C@H](N)C(=O)O; Pip = O=C(O)[C@@H]1CCCCN1; Thz = O=C(O)[C@@H]1CSCN1; NHIsopentyl = CC(C)CCN*; NHBn = c1ccc(CN*)cc1

What was measured:
Assay type in all cases: binding
Keap1 Kelch protein = biological target: T1, Keap1 Kelch protein (Homo sapiens, UniProt Q14145); assay: Differential scanning fluorimetry (DSF) thermal shift screen; details: 10% DMSO, DPBS pH 7.4, 30 min at RT, 25-95 °C at 1 °C/min, triplicate, Keap1 Kelch Tm 47.0±0.1 °C; for ΔTm at 10 µM: pH 7.4, 10 μM peptide; for DSF ΔTm: 10 μM peptide
T1 construct: made in house; host or cells: E. coli BL21 CodonPlus
T1 sequence (Q14145 321-609 limits assumed): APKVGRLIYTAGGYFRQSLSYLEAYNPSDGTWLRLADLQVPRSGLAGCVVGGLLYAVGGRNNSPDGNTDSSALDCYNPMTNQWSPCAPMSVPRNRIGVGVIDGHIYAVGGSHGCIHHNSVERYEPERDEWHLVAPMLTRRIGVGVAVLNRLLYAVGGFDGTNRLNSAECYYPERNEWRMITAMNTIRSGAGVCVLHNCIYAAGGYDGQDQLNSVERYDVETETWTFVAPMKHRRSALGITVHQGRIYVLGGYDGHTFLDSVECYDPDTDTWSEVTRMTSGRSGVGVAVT
Protocol: DPBS at pH 7.4 was added to the wells of a MicroAmp® Optical 96-well reaction plate
containing the peptide inhibitor (10 µM, 10% final DMSO concentration, 40 µL final volume).
The plate was sealed using an optical adhesive cover and covered with aluminium foil to
protect the dye from light. The plate was then transferred to a plate centrifuge and spun down
briefly (200 g, 1 min, RT) to remove any bubbles and collect the solution at the bottom of the
wells. Following a 30 min incubation at RT, the plate was placed into a 7500 Real time PCR
machine and subjected to a standard protein melting protocol8 using the 7500 Software
1°C/min. All measurements were run in triplicate. The raw data were exported to MS Excel
and analysis was performed using a custom script provided by the Structural Genomics
Consortium Oxford.[8] The temperature range over which the protein unfolding occurred was
selected and the maximum and minimum (at temperatures below the maximum intensity)
fluorescence intensities within this range were determined. The processed data were fitted to
the Boltzmann equation by linear regression analysis using the Origin Pro software.

Keap1 Kelch domain [1] = biological target: T2, Keap1 Kelch domain (Homo sapiens, UniProt Q14145); assay: Fluorescence polarisation (FP) competition assay; details: for IC50: FP assay, Keap1 Kelch domain; for Ki: estimated from FP IC50 by the method described by Kenakin (ref 14), read-out: FP calcd Ki; for Percentage inhibition in FP assay: 100 μM concentration of inhibitor
T2 construct: made in house; host or cells: E. coli BL21 CodonPlus
T2 sequence (Q14145 321-609 limits assumed): as above

Keap1 Kelch domain [2] = biological target: T2, Keap1 Kelch domain; assay: Isothermal titration calorimetry (ITC); details: 25 °C, 50 μM protein, 500 μM peptide, 25 mM HEPES pH 7.4, 200 mM NaCl, 5% DMSO, mean of n≥2
Protocol: Isothermal titration calorimetry experiments
The protein was initially dialysed overnight against buffer containing 25 mM HEPES, pH 7.4
and 200 mM NaCl. The protein was diluted to a concentration of 50 μM prior to ITC. Inhibitors
were diluted to an appropriate concentration in dialysis buffer so that the final solution
contained no more than 5% DMSO. To maintain a similar buffer composition for titrations, 5%
DMSO was added to the protein solution. All peptides in this study were used at a
concentration of 500 μM. There were no detectable solubility issues at these concentrations
of the peptides in the dialysis buffer. ITC experiments were performed with a MicroCal PEAQ-
ITC instrument (Malvern Instruments, UK).
speed of around 750 rpm. In total 30 injections were performed for one protein inhibitor
experiment with the first injection of 0.3 μL followed by 29 injections of 1.3 μL and a gap of
120 s between each injection. Data analyses were performed after subtraction of the heats of
dilution for each experiment. The thermodynamic parameters N (stoichiometry), Kd
(dissociation constant/binding affinity), ∆S (entropy change) and ∆H (enthalpy change) were
obtained by using the single-site-binding model of the PEAQ-ITC analysis software (Malvern
Instruments, UK). For each experiment, at least two titrations were performed. Titration data
were analysed independently, and the obtained values were averaged.

| Compound | ΔTm at 10 µM (Keap1 Kelch protein) [°C] | IC50 (Keap1 Kelch domain [1]) [nM] | Ki (Keap1 Kelch domain [1]) [nM] | ITC TΔS (Keap1 Kelch domain [2]) [kcal/mol] | ITC ΔG (Keap1 Kelch domain [2]) [kcal/mol] | ITC ΔH (Keap1 Kelch domain [2]) [kcal/mol] | Kd (Keap1 Kelch domain [2]) [nM] | DSF ΔTm (Keap1 Kelch protein) | Percentage inhibition in FP assay (Keap1 Kelch domain [1]) |
| --- | --- | --- | --- | --- | --- | --- | --- | --- | --- |
| CC(=O)N[C@@H](CC(=O)O)C(=O)N1CCCC[C@H]1C(=O)N[C@@H](CCC(=O)O)C(=O)N[C@H](C(=O)NCC(=O)N[C@@H](CCC(=O)O)C(=O)N[C@@H](CC(C)C)C(=O)O)[C@@H](C)O [compound 16, Ac‐Asp‐Pip‐Glu‐Thr‐Gly‐Glu‐Leu‐OH] (Ac-D[Pip]ETGEL-OH) | ~2 | 1060 ± 280 | 447 | – | – | – | – | – | – |
| CC(=O)N[C@@H](CC(=O)O)C(=O)N1CCC[C@H]1C(=O)N[C@@H](CCC(=O)O)C(=O)N[C@H](C(=O)NCC(=O)N[C@@H](CCC(=O)O)C(=O)N[C@H](C(=O)O)C(C)(C)C)[C@@H](C)O [compound 9, Ac‐Asp‐Pro‐Glu‐Thr‐Gly‐Glu‐Tle‐OH] (Ac-DPETGE[Tle]-OH) | 5.8 ± 0.6 | 235 ± 16 | 99 | -1.69 ± 0.34 | -8.59 ± 0.12 | -10.25 ± 0.21 | 580 ± 90 | – | – |
| Ac‐Asp‐Pro‐Glu‐Bap‐Gly‐Glu‐Leu‐OH [compound 13] | – | – | – | – | – | – | – | ≈ 0.5 °C and 0.5±0.1 °C | 27 %^[c] |
| CC(=O)N[C@@H](CC(=O)O)C(=O)N1CCC[C@H]1C(=O)N[C@@H](CCC(=O)O)C(=O)N[C@H](C(=O)NCC(=O)N[C@@H](CCC(=O)O)C(=O)N[C@@H](CC(C)C)c1nnn[nH]1)[C@@H](C)O [compound 8, Ac‐Asp‐Pro‐Glu‐Thr‐Gly‐Glu‐Leu‐TET] (Ac-DPETGE-X1) | 6.2 ± 0.3 | 374 ± 31 | 157 | – | – | – | – | – | – |
| CC(=O)N[C@@H](CC(=O)O)C(=O)N1CCC[C@H]1C(=O)N[C@@H](CCC(=O)O)C(=O)N[C@H](C(=O)NCC(=O)N[C@@H](CCC(=O)O)C(=O)N[C@@H](CC1CCCCC1)C(=O)O)[C@@H](C)O [compound 11, Ac‐Asp‐Pro‐Glu‐Thr‐Gly‐Glu‐Cha‐OH] (Ac-DPETGE[Cha]-OH) | 5.8 ± 0.9 | 85 ± 14 | 36 | -0.29 ± 0.001 | -9.57 ± 0.21 | -9.83 ± 0.22 | 75 ± 6 | – | – |
| CC(=O)N[C@@H](CC(=O)O)C(=O)N1CSC[C@H]1C(=O)N[C@@H](CCC(=O)O)C(=O)N[C@H](C(=O)NCC(=O)N[C@@H](CCC(=O)O)C(=O)N[C@@H](CC(C)C)C(=O)O)[C@@H](C)O [compound 15, Ac‐Asp‐Thp‐Glu‐Thr‐Gly‐Glu‐Leu‐OH] (Ac-D[Thz]ETGEL-OH) | 8.3 ± 0.3 | 89 ± 6 | 37 | -3.84 ± 0.31 | -8.95 ± 0.17 | -12.83 ± 0.33 | 310 ± 10 | – | – |
| Ac‐Asp‐Pro‐Glu‐hPhe‐Gly‐Glu‐Leu‐OH [compound 12] | – | – | – | – | – | – | – | ≈ 0.5 °C and 0.8±0.2 °C | 20 %^[c] |
| CC(=O)N[C@@H](CC(=O)O)C(=O)N1CCC[C@H]1C(=O)N[C@@H](CCC(=O)O)C(=O)N[C@H](C(=O)NCC(=O)N[C@@H](CCC(=O)O)C(=O)N[C@@H](CC(C)C)C(=O)NCCC(C)C)[C@@H](C)O [compound 6, Ac‐Asp‐Pro‐Glu‐Thr‐Gly‐Glu‐Leu‐NH‐isopentyl] (Ac-DPETGEL-NHIsopentyl) | ~2 | 745 ± 126 | 313 | – | – | – | – | – | – |
| CC(=O)N[C@@H](CC(=O)O)C(=O)N1CCC[C@H]1C(=O)N[C@@H](CCC(=O)O)C(=O)N[C@H](C(=O)NCC(=O)N[C@@H](CCC(=O)O)C(=O)N[C@@H](Cc1cccs1)C(=O)O)[C@@H](C)O [compound 10, Ac‐Asp‐Pro‐Glu‐Thr‐Gly‐Glu‐Thi‐OH] (Ac-DPETGE[2Thi]-OH) | 5.3 ± 0.2 | 578 ± 25 | 243 | – | – | – | – | – | – |
| Ac-DPENGEL-OH [compound 14, Ac‐Asp‐Pro‐Glu‐Asn‐Gly‐Glu‐Leu‐OH] | ~0.5 | 3040 ± 310 | 1280 | – | – | – | – | – | – |
| CC(=O)N[C@@H](CC(=O)O)C(=O)N1CCC[C@H]1C(=O)N[C@@H](CCC(=O)O)C(=O)N[C@H](C(=O)NCC(=O)N[C@@H](CCC(=O)O)C(=O)N[C@@H](CC(C)C)C(=O)NCc1ccccc1)[C@@H](C)O [compound 7, Ac‐Asp‐Pro‐Glu‐Thr‐Gly‐Glu‐Leu‐NH‐Bn] (Ac-DPETGEL-NHBn) | ~2 | 888 ± 28 | 373 | – | – | – | – | – | – |
